This note sets out measurements from US20240053368A1, “METHOD FOR EVALUATING BLOOD PARAMETERS” (SEDICIDODICI S.R.L., priority 2020, published 2024).

Assay [1] concerns platelets (platelet aggregate formation). As to the kind of experiment: ex-vivo dynamic evaluation of the coagulation process in a whole-blood sample under flow: platelet aggregate formation. Set-up: species or system human. As to conditions: mean value, blood of subjects under the therapy, 8-bit acquisition system. An excerpt: According to some embodiments, the method of the invention comprises the following steps: • a) providing a whole-blood sample taken from a subject and added with an anti-coagulant substance; • b) treating the blood sample of step a) with a solution consisting of fluorescent probes for marking platelets and fibrin capable of binding more or less specifically to platelets and fibrin and emitting fluorescent light on two different emission frequencies and of a recalcification solution of the blood sample. […]
(§1) From a study carried out on healthy subjects not subjected to anticoagulant or antiplatelet therapy (controls), mean values of the parameters calculated as described above were obtained. […]

The subject of assay [2] is fibrin (fibrin formation). As to the kind of experiment: ex-vivo dynamic evaluation of the coagulation process in a whole-blood sample under flow: fibrin formation. On the set-up: species or system human. As to conditions: mean value.
From the text: According to some embodiments, the method of the invention comprises the following steps: • a) providing a whole-blood sample taken from a subject and added with an anti-coagulant substance; • b) treating the blood sample of step a) with a solution consisting of fluorescent probes for marking platelets and fibrin capable of binding more or less specifically to platelets and fibrin and emitting fluorescent light on two different emission frequencies and of a recalcification solution of the blood sample. The two aforesaid solutions can also be combined in a single solution or single reagent; • c) introducing said recalcified blood sample into an analytical device having at least one perfusion chamber, in which at least one wall consists of a transparent material comprising a cytoadhesive substance, the blood sample being made to flow into the perfusion chamber in known and measurable flow conditions; • d) during the blood flow in the perfusion chamber, alternately acquiring at least two series of fluorescence images, so that at least one series of fluorescence images is acquired at an emission wavelength characteristic of the fluorescent probe for platelets and at least one other series of fluorescence images is acquired at another emission wavelength characteristic of the fluorescent probe for fibrin; • e) binarizing the pixels of the acquired images for the platelets and for the fibrin, so as to generate a first curve of area covered by illuminated pixels vs. time (t) for the formation of a platelet aggregate and a second curve of area covered by illuminated pixels vs. time for the fibrin formation; • f) generating a first curve of average fluorescence intensity vs. time for the formation of the platelet aggregate and a second curve of average fluorescence intensity vs. time for the fibrin formation; • the method further comprising at least one of the following steps: • g) generating a first integrated density curve defined as the product of area and fluorescence intensity vs. time for the formation of the platelet aggregate and a second integrated density curve defined as the product of area and fluorescence intensity vs. time for the fibrin formation; • h) generating a curve of particle number vs. time, in which the number of particles is given by the number of platelet aggregates consisting of more than 2 illuminated pixels; • i) generating a curve of particle size vs. time, in which the particle size is given by the average size of the platelet aggregates consisting of more than 2 illuminated pixels; • j) generating values of maximum slope, defined as the relative maximum points of the first derivative function calculated for the curves of the parameter obtained in one or more of steps e), f), g), h) and i); • k) generating values of maximum acceleration, defined as the relative maximum points of the second derivative function calculated for the curves of the parameter obtained in one or more of steps e), f), g), h) and i); • l) generating values of F/P ratio, defined as the ratio of the AUCs of fibrin to the AUCs of the platelets of the parameter obtained in one or more of steps e), f) and g); • the method further comprising the steps of: • m) generating a lag time value representing the fibrin formation time defined as the time corresponding to the first occurrence of five consecutive images in which the value of the measured area related to fibrin is >1% of the maximum peak value of the curve; • n) generating the AUC (Area Under the Curve) values given by the area under the curve of the parameter obtained in one or more of steps e), f), g), h) and i).
as §1

For the compound `CC(=O)Oc1ccccc1C(=O)O` [ASA, acetylsalicylic acid], the “Platelets AUC Area” value in assay [1] (area under the curve of the area curve) is reported as 3.4 ×10^7. The “Platelets AUC MGV” value in assay [1] (area under the curve of the fluorescence intensity curve) is 2.0 ×10^4. In addition, the “Platelets AUC ID” value in assay [1] (area under the curve of the integrated density curve) is 3.0 ×10^9. The “F/P Area” value in assay [2] (AUC Area ratio of fibrin to platelets, subjects under the therapy) was found to be 1.0. Also, in assay [2] (AUC ID ratio of fibrin to platelets, subjects under the therapy), the “F/P ID” value stood at 2.2. Further, the “F/P MGV” value in assay [2] (AUC MGV ratio of fibrin to platelets, subjects under the therapy) was 1.2. Moreover, the “Fibrin AUC Area” value in assay [2] (blood of subjects under the therapy, area under the curve of the area curve, 8-bit acquisition system) is 3.0 ×10^7. Moreover, in assay [2] (blood of subjects under the therapy, area under the curve of the fluorescence intensity curve, 8-bit acquisition system), the “Fibrin AUC MGV” value is on record as 2.0 ×10^4. Besides, the “Fibrin AUC ID” value in assay [2] (blood of subjects under the therapy, area under the curve of the integrated density curve, 8-bit acquisition system) was 4.3 ×10^9.
